Earlier results, collected in patent publication US20060160700A1, “Nadh-dependent cytochrome b5 reductase as target for herbicides” (Basf Aktiengesellschaft, priority 2002, published 2006).

Legend:
[1] = test system: NADH-dependent cytochrome b5 reductase from various organisms; settings: enzyme from various organisms; Golf et al. 1985, Tamura et al. 1983
[2] = target: T1, NADH-dependent cytochrome b5 reductase from human erthyrocytes (Homo sapiens, UniProt P00387); settings: enzyme from human erythrocytes; Palmieri et al. 1990
T1 construct: host or cells: human erythrocytes
T1 sequence (P00387 24-301 limits assumed): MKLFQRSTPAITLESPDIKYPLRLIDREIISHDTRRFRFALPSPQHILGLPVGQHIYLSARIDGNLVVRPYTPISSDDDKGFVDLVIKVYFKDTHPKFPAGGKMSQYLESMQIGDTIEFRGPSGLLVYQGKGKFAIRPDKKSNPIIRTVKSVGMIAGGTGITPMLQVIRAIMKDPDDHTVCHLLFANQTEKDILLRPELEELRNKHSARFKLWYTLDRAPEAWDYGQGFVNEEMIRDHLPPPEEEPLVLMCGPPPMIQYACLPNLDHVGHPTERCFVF

[3] = target: T2, NADH-dependent cytochrome b5 reductase from rat liver microsomes (Rattus norvegicus, UniProt P20070); settings: at a concentration of 0.5 mM, Golf et al. 1985
T2 construct: host or cells: rat liver microsomes
T2 sequence (P20070 1-301): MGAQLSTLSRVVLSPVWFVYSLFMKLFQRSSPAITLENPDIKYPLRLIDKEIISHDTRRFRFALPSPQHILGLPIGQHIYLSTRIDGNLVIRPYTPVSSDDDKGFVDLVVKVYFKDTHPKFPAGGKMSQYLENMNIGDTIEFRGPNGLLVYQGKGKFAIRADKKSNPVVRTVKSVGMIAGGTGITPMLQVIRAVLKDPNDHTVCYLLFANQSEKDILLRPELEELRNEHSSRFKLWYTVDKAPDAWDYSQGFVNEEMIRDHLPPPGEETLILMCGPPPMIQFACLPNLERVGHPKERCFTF

Structure (SMILES) | inhibition of NADH-dependent cytochrome b5 reductase (result in words) [1] | other results
CCN(CC)CCCC(C)Nc1c2ccc(Cl)cc2nc2ccc(OC)cc12 (stereo not drawn) [mepacrin] | capable of inhibiting | –
O=P(O)(O)O[C@H]1[C@H](OP(=O)(O)O)[C@@H](OP(=O)(O)O)[C@H](OP(=O)(O)O)[C@@H](OP(=O)(O)O)[C@H]1OP(=O)(O)O [inositol hexaphosphate] | – | concentrations that inhibit the NADH-dependent cytochrome b5 reductase [2]: millimolar range
CCN1C(=O)C=CC1=O [N-ethylmaleimide] | capable of inhibiting | –
O=C(CC(=O)C(F)(F)F)c1cccs1 [thenoyltrifluoroacetone] | – | inhibition of NADH-dependent cytochrome b5 reductase [3]: 50%
O=c1oc2ccccc2c(O)c1Cc1c(O)c2ccccc2oc1=O [dicoumarol] | capable of inhibiting | –
CCC1(CCC(C)C)C(=O)NC(=O)NC1=O [amytal] | capable of inhibiting | –
